Reference: patent US8217004B2, “Sequestering agent for micronutrient fertilisers” (priority 2005, dated 2012)

Experiments:
[1] = tested on: Canola; assay: Pot experiment: availability of Zn fertiliser to Canola grown on alkaline and calcareous soils; type: in vivo, Canola (variety Pinnacle); conditions: calcareous grey sandy loam (Streaky Bay) and Sodosol (Birchip); 21 days; FIG. 2; LSD=1.72; p<0.01
Text: Topsoils from each location were collected, oven dried and passed through a 2 mm sieve. The experimental fertilisers were mixed with 20g of soil, which was banded between 100 g of the unfertilised bulk soil. Total nutrient application equated to (μg/g soil) P 60, N 27, applied as TGMAP, and Zn 0.2 as ZnSO4.7H2O. Chelate rates were based on the concentrations required to complex between 75 and 100% of the Zn in the fertiliser solution. Rates varied depending on the equilibrium constant (logK) and the stoichiometry of the Zn-ligand complexes. […] Each treatment was replicated four times.
Two pre-germinated Canola seeds (variety Pinnacle) were transferred to each pot. The pots were watered to θg=0.5 with deionised water every second day and evaporation was reduced with polyethylene beads, which were spread over the exposed surface of each pot. The plants were grown for 21 days in a controlled environment growth chamber (10 h dark at 15° C., 14 h light at 20° C., 41% humidity) before the shoots were harvested, rinsed, dried, weighed and then digested in concentrated HNO3. Plant digests were analysed for ^65Zn by gamma spectroscopy and for total nutrient contents by ICP-OES.
Data for shoot dry weight, shoot nutrient concentrations and Zn fertiliser uptake were analysed by analysis of variance (ANOVA). Significance between means was determined using the Least Significant Difference (LSD) test.

[2] = tested on: Canola; assay: Canola dry matter response to foliar applied Zn (shoot immersion); type: in vivo, Canola (var. Pinnacle); conditions: Zn deficient Canola, shoots immersed five seconds; compared with ZnSO4 or ZnEDTA; FIG. 3; P<0.05, LSD=0.1496
Text: Dry matter response in Zn deficient Canola was used as a measure of fertiliser effectiveness because it considers metabolically available Zn, rather than total Zn uptake. Pre-germinated Canola seedlings (var. […] After 13 days, whole shoots were immersed in ZnSO4.7H2O solutions for five seconds. […] Rhamnolipid rates were high enough to ensure a Zn Kow of at least 50 at the highest Zn application rate. […] Wetting agent was not required in the Rhamnolipid solutions because of the surfactant properties of the ligand. […] After the three-week growth period, plant roots and shoots were harvested, dried and weighed for dry matter production.

[3] = n-Octanol/water partition coefficients (Kow) of metal-ligand complexes, shake-flask method; type: physicochemical
Text: n-Octanol/water partition coefficients (Kow) are commonly used to determine whether molecules can partition into hydrophobic (lipid-soluble) phases. Polar molecules, ie metals, generally partition in the water phase. Neutral, lipid soluble organic molecules may partition within the octanol phase according to their Kow. Most conventional chelate complexes (ie ZnEDTA^2−) partition within the water phase. […] The aim of this experiment was to determine whether Zn-Rhamnolipid complexes would partition within the n-octanol phase. Kow's were measured with varying Rhamnolipid concentrations. […] Final Rhamnolipid concentrations were (mM) 0, 0.1, 0.24, 0.5, 1, 1.5, 2, 2.5. Two millilitres of n-Octanol was added to the solutions before they were shaken end-over-end for 24 hours. Following shaking, 3 ml of solution was removed from the water phase and digested in concentrated HNO3 before analysis for total Zn by ICP-OES. The partition coefficient was calculated according to the equation above.

[4] = published value; cited from earlier work

rhamnolipid
total Zn uptake by canola (roots absorbed and translocated into shoots) [1]: significantly increased total Zn uptake
plant foliar dry matter response to applied Zn [2]: significantly increased dry matter response to Zn
partitioning of metal-ligand complex into the n-octanol phase (Kow) ([3]; Zn, Mn, Cu, shake-flask, 24 hours, FIG. 1): dramatically facilitates the transfer of the metal ion from the aqueous phase into the octanol phase
Zn Kow ([3]; at the Rhamnolipid rates used for foliar test, at the highest Zn application rate): at least 50

O=C(O)CN(CCN(CC(=O)O)CC(=O)O)CC(=O)O [EDTA, reference compound]
total Zn uptake by canola (roots absorbed and translocated into shoots) [1]: ineffective

O=C([O-])CN(CCN(CC(=O)O)CC(=O)O)CC(=O)[O-].[Zn+2] [ZnEDTA]
logK of Zn complex [4]: 16.5
